Results reported in PubChem BioAssay (NCI).
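A five-concentration, 48-hour dose response in 96-well plates underlies each endpoint, interpolated linearly between surrounding concentrations. GI50 = concentration required for 50% inhibition of growth. Definition used: TGI = concentration required for complete inhibition of growth.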

What was measured:
Test in all cases: NCI-60 cell line screen, 48 h
[1] = system: COLO 205 colon
[2] = system: OVCAR-3 ovarian
[3] = system: NCI-H23 lung
[4] = system: PC-3 prostate
[5] = system: MDA-MB-435
[6] = system: U251 CNS
[7] = system: UO-31 renal
[8] = system: SNB-75 CNS
[9] = system: T-47D breast
[10] = system: HOP-92 NSCLC
[11] = system: SK-OV-3 ovarian
[12] = system: MDA-MB-231 breast
[13] = system: SF-295 CNS
[14] = system: NCI-H522 lung
[15] = system: EKVX NSCLC
[16] = system: HOP-62 NSCLC
[17] = system: CCRF-CEM leukemia
[18] = system: OVCAR-5 ovarian
[19] = system: UACC-62 melanoma
[20] = system: HS 578T breast
[21] = system: NCI-H460 lung
[22] = system: NCI/ADR-RES ovarian
[23] = system: SF-268 CNS
[24] = system: CAKI-1 renal
[25] = system: SN12C renal
[26] = system: RPMI-8226 leukemia
[27] = system: SW-620 colon
[28] = system: UACC-257 melanoma
[29] = system: SK-MEL-5 melanoma
[30] = system: SK-MEL-2 melanoma
[31] = system: 786-0 renal
[32] = system: MOLT-4 leukemia
[33] = system: DU-145 prostate
[34] = system: KM12 colon
[35] = system: MCF7 breast
[36] = system: HCC-2998 colon
[37] = system: TK-10 renal
[38] = system: MALME-3M melanoma
[39] = system: OVCAR-8 ovarian
[40] = system: SK-MEL-28 melanoma
[41] = system: OVCAR-4 ovarian
[42] = system: IGROV1 ovarian
[43] = system: HCT-116 colon
[44] = system: K-562 leukemia
[45] = system: HCT-15 colon
[46] = system: SNB-19 CNS
[47] = system: ACHN renal
[48] = system: M14 melanoma
[49] = system: HT29 colon
[50] = system: A549 NSCLC
[51] = system: NCI-H226 lung
[52] = system: SR leukemia
[53] = system: LOX IMVI melanoma

Work on `Cc1cccc2c1ccc1c3occ(C)c3c(=O)oc21` yielded a GI50 [1] greater than 100 µM, a TGI [1] greater than 100 µM and a GI50 [2] greater than 100 µM. The TGI [2] was greater than 100 µM, the GI50 [3] was greater than 100 µM and the TGI [3] was greater than 100 µM. The GI50 [4] was greater than 100 µM, the TGI [4] was greater than 100 µM and the GI50 [5] was greater than 100 µM. It also gave a TGI [5] greater than 100 µM, a GI50 [6] greater than 100 µM and a TGI [6] greater than 100 µM. The GI50 [7] was greater than 100 µM, the TGI [7] was greater than 100 µM and the GI50 [8] was 45.7 µM. For the same molecule, the TGI [8] was greater than 100 µM, the GI50 [9] was 9.65 µM and the TGI [9] was greater than 100 µM. It also gave a GI50 [10] of 49.9 µM, a TGI [10] greater than 100 µM and a GI50 [11] greater than 100 µM. For the same molecule, the TGI [11] was greater than 100 µM, the GI50 [12] was greater than 100 µM and the TGI [12] was greater than 100 µM. It also gave a GI50 [13] greater than 100 µM, a TGI [13] greater than 100 µM and a GI50 [14] greater than 100 µM. It also gave a TGI [14] greater than 100 µM, a GI50 [15] of 76.6 µM and a TGI [15] greater than 100 µM. For the same molecule, the GI50 [16] was greater than 100 µM, the TGI [16] was greater than 100 µM and the GI50 [17] was greater than 100 µM. It also gave a TGI [17] greater than 100 µM, a GI50 [18] greater than 100 µM and a TGI [18] greater than 100 µM. It also gave a GI50 [19] greater than 100 µM, a TGI [19] greater than 100 µM and a GI50 [20] greater than 100 µM. For the same molecule, the TGI [20] was greater than 100 µM, the GI50 [21] was 93.1 µM and the TGI [21] was greater than 100 µM. It also gave a GI50 [22] greater than 100 µM, a TGI [22] greater than 100 µM and a GI50 [23] greater than 100 µM. It also gave a TGI [23] greater than 100 µM, a GI50 [24] greater than 100 µM and a TGI [24] greater than 100 µM. For the same molecule, the GI50 [25] was greater than 100 µM, the TGI [25] was greater than 100 µM and the GI50 [26] was greater than 100 µM. It also gave a TGI [26] greater than 100 µM, a GI50 [27] greater than 100 µM and a TGI [27] greater than 100 µM. It also gave a GI50 [28] greater than 100 µM, a TGI [28] greater than 100 µM and a GI50 [29] greater than 100 µM. The TGI [29] was greater than 100 µM, the GI50 [30] was greater than 100 µM and the TGI [30] was greater than 100 µM. The GI50 [31] was greater than 100 µM, the TGI [31] was greater than 100 µM and the GI50 [32] was 51.5 µM. The TGI [32] was greater than 100 µM, the GI50 [33] was greater than 100 µM and the TGI [33] was greater than 100 µM. The GI50 [34] was greater than 100 µM, the TGI [34] was greater than 100 µM and the GI50 [35] was 23.4 µM. The TGI [35] was greater than 100 µM, the GI50 [36] was greater than 100 µM and the TGI [36] was greater than 100 µM. For the same molecule, the GI50 [37] was greater than 100 µM, the TGI [37] was greater than 100 µM and the GI50 [38] was greater than 100 µM. It also gave a TGI [38] greater than 100 µM, a GI50 [39] greater than 100 µM and a TGI [39] greater than 100 µM. For the same molecule, the GI50 [40] was greater than 100 µM, the TGI [40] was greater than 100 µM and the GI50 [41] was greater than 100 µM. For the same molecule, the TGI [41] was greater than 100 µM, the GI50 [42] was greater than 100 µM and the TGI [42] was greater than 100 µM. It also gave a GI50 [43] greater than 100 µM, a TGI [43] greater than 100 µM and a GI50 [44] greater than 100 µM. For the same molecule, the TGI [44] was greater than 100 µM, the GI50 [45] was greater than 100 µM and the TGI [45] was greater than 100 µM. For the same molecule, the GI50 [46] was greater than 100 µM, the TGI [46] was greater than 100 µM and the GI50 [47] was greater than 100 µM. For the same molecule, the TGI [47] was greater than 100 µM, the GI50 [48] was greater than 100 µM and the TGI [48] was greater than 100 µM. It also gave a GI50 [49] greater than 100 µM, a TGI [49] greater than 100 µM and a GI50 [50] greater than 100 µM. The TGI [50] was greater than 100 µM, the GI50 [51] was greater than 100 µM and the TGI [51] was greater than 100 µM. The GI50 [52] was greater than 100 µM, the TGI [52] was greater than 100 µM and the GI50 [53] was 80.3 µM. It also gave a TGI [53] greater than 100 µM.

In the case of `Cc1cn2c(/C=N/N=C(N)N)c(-c3cc(Cl)sc3Cl)nc2s1`, the GI50 [3] is reported as 0.904 µM, the TGI [3] is reported as 1.66 µM and the GI50 [4] is reported as 0.8 µM. The TGI [4] was 1.48 µM, the GI50 [11] was 1.15 µM and the TGI [11] was 2.78 µM. For the same molecule, the GI50 [17] was 0.76 µM, the TGI [17] was 1.57 µM and the GI50 [18] was 0.886 µM. It also gave a TGI [18] of 1.59 µM, a GI50 [21] of 1.74 µM and a TGI [21] greater than 50 µM. For the same molecule, the GI50 [22] was 5.57 µM, the TGI [22] was 13.3 µM and the GI50 [24] was 6.18 µM. For the same molecule, the TGI [24] was 26 µM, the GI50 [26] was 0.792 µM and the TGI [26] was 1.73 µM. It also gave a GI50 [29] of 0.905 µM, a TGI [29] of 1.74 µM and a GI50 [30] of 1.98 µM. The TGI [30] was greater than 50 µM, the GI50 [31] was 0.887 µM and the TGI [31] was 1.83 µM. The GI50 [32] was 1.17 µM, the TGI [32] was 2.06 µM and the GI50 [34] was 0.736 µM. For the same molecule, the TGI [34] was 1.59 µM, the GI50 [35] was 0.777 µM and the TGI [35] was 2.04 µM. For the same molecule, the GI50 [36] was 0.888 µM, the TGI [36] was 1.6 µM and the GI50 [37] was 1.15 µM. It also gave a TGI [37] of 2.95 µM, a GI50 [39] of 1.19 µM and a TGI [39] of 2.9 µM. For the same molecule, the GI50 [45] was 1.84 µM, the TGI [45] was 8.55 µM and the GI50 [46] was 1.84 µM. For the same molecule, the TGI [46] was greater than 50 µM, the GI50 [47] was 0.908 µM and the TGI [47] was 1.63 µM. For the same molecule, the GI50 [48] was 0.874 µM, the TGI [48] was 1.56 µM and the GI50 [49] was 1.72 µM. It also gave a TGI [49] of 12.1 µM.
